# Experimental data as given in patent US20060287248A1, “Asymmetric dosing methods” (Schering Corporation, priority 2005, published 2006).
# Assays:
# [1] = Serum levels of compound Ia on day 14 in healthy subjects, BID vs TID regimen (FIG. 2); assay type: in vivo, human; conditions: 400 mg TID; for serum/plasma level before the morning dose (time zero), 8 hours after the previous dose: healthy subjects, compared with 8 hours after the morning dose
# Description: Healthy subjects were put on one of two regimens of 400 mg BID or 400 mg. TID of a compound of Formula Ia. Blood samples were taken on day 14 immediately prior to the morning dose (time zero) and at 12 hours post-dose (for the BID regimen) or 8 hours post-dose (for the TID regimen).
# HCV = assay: Viral load in HCV patients on regimens of compound of Formula Ia (reverse transcriptase PCR, FIG. 1); assay type: in vivo, human; conditions: Patients with HCV, 200 mg BID, 400 mg BID, 400 mg TID
# Excerpt: FIG. 1 is a graph of mean viral load measured over time with administration of various doses and regimens of compound of Formula Ia; and
# Studies of viral activity in HCV infected patients indicate that viral activity and resulting viral load are influenced by the circadian rhythm of the patient. […] Thus, in one aspect of the invention, the one or more discrete dosages are adjusted in amount to provide a highest dose or doses at a time or times corresponding to the time interval when hepatitis-C virus replication is highest.
# Patients with HCV were put on various treatment regimens including 200 mg. BID, 400 mg. BID, and 400 mg. TID of a compound of Formula Ia, to determine efficacy of the regimens in reducing viral load. Blood samples were taken at predose and at 0.25, 0.5, 0.75, 1, 1.5, 2, 3, 4, 5, 6, 8, 10, 12, 18, 24, 36, 48, 72, 144 hr post dose using reverse transcriptase PCR methods.
# melanoma A375 tumors = melanoma A375 tumors implanted into the left ventricle of the heart; cited from earlier work
plasma level 8 hours after the morning dose ([1]; compared with level before the morning dose),"serum/plasma level before the morning dose (time zero), 8 hours after the previous dose [1]","serum/plasma level before the morning dose (time zero), 8 hours after the previous dose ([1]; listed as formula la)",SMILES,pattern of viral load decline over time (HCV),pattern of viral load decline over time (HCV; listed as Formula la),viral load as measured in serum (HCV; predose to 144 hr post dose),distant bone metastasis to the femur and tibia (melanoma A375 tumors)
much lower,significantly higher at time zero,highest in the morning,"CC(C)(C)NC(=O)N[C@H](C(=O)N1C[C@H]2[C@@H]([C@H]1C(=O)NC(CC1CCC1)C(=O)C(N)=O)C2(C)C)C(C)(C)C (stereo partly drawn) [Formula Ia, (1R,5S)-N-[3-Amino-1-(Cyclobutylmethyl)-2,3-Dioxopropyl]-3-[2(S)-[[[(1,1-Dimethylethyl)Amino]Carbonyl]Amino]-3,3-Dimethyl-1-Oxobutyl]-6,6-Dimethyl-3-Azabicyclo[3.1.0]Hexan-2(S)-Carboxamide]",exhibited cyclical fluctuations corresponding to the patients' sleep/wake cycles,the decline in viral load is cyclical,declined with all regimens,–
–,–,–,CN(C)C(=O)[C@H](Cc1ccccc1)NC(=O)[C@H]1O[C@@H]1C(=O)NCCc1ccccn1 [CLIK-148],–,–,–,reduced distant bone metastasis
